One compound from ChEMBL document CHEMBL4251633, “Design, synthesis, biological evaluation and cocrystal structures with tubulin of chiral β-lactam bridged combretastatin A-4 analogues as potent antitumor agents” (Eur J Med Chem, 2018) can be followed below.

The source made the active and inactive calls. No cut-off for these calls is given here.

Data set [1] has as its system Mus musculus. Put plainly: Anti-vascular activity in Balb/c nude mouse assessed as inhibition of VEGF-induced capillary blood vessel formation using sc injected matrigel plug supplemented with 100 nM test compound mixed with VEGF and measured after 1 week by matrigel plug assay. The data set is classed as functional, organism-based.
The test system of data set [2] is HeLa. Nature of the data set: Induction of apoptosis in human HeLa cells assessed as late apoptotic cells at 50 nM after 48 hrs by Annexin V-FITC/propidium iodide staining based flow cytometry (reference value: 2%). The data set is classed as functional.
A short description of data set [3]: Acute toxicity in ICR mouse assessed as death administered ip measured up to 14 days. The conditions noted are these: in vivo. The data set is classed as organism-based.
Data set [4] is described as follows: Acute toxicity in ICR mouse assessed as survival rate at 100 mg/kg, ip measured on day 14 (reference value: 100%). The data set is classed as organism-based. The conditions noted are these: in vivo.
For data set [5], the system named is HeLa. Put plainly: Induction of apoptosis in human HeLa cells assessed as necrotic cells at 50 nM after 48 hrs by Annexin V-FITC/propidium iodide staining based flow cytometry (reference value: 0.9%). The data set is classed as functional.
Data set [6] relates to MDA-MB-231. Put plainly: Anticlonogenic activity against human MDA-MB-231 cells incubated for 48 hrs followed by replacement with fresh medium measured after 7 to 10 days by gentian violet staining based assay. The class given is functional, cell-based.
Data set [7] concerns HeLa. Put plainly: Upregulation of cleaved PARP1 protein expression in human HeLa cells after 48 hrs by Western blot analysis. The data set is classed as functional, cell-based. (In general: In western blotting, separated proteins are transferred to a membrane and probed.)
Data set [8] has as its system Mus musculus. Put plainly: Toxicity in Balb/c nude mouse xenografted with human A2780 cells assessed as abnormality in liver at 8 mg/kg, ip once in every 2 days measured after 14 days by H and E staining based assay. The class given is organism-based. Conditions: in vivo, 336 h. (In general: In xenograft studies the graft and the host belong to different species.)
Data set [9] relates to HeLa. Nature of the data set: Induction of apoptosis in human HeLa cells assessed as early apoptotic cells at 200 nM after 48 hrs by Annexin V-FITC/propidium iodide staining based flow cytometry (reference value: 0.7%). The data set is classed as functional. (Flow cytometry measures light scatter and fluorescence of single cells or particles in a stream.)
Data set [10] deals with HeLa. Put plainly: Induction of histone-H3 phosphorylation in human HeLa cells by Western blot analysis. The data set is classed as cell-based.
For data set [11], the system named is Mus musculus. Put plainly: Anti-vascular activity in Balb/c nude mouse assessed as inhibition of VEGF-induced capillary blood vessel formation by measuring reduction in hemoglobin level using sc injected matrigel plug supplemented with 100 nM test compound mixed with VEGF and measured after 1 week by matrigel plug assay. The data set is classed as functional, organism-based.

The term LD50 denotes the dose at which mortality reaches 50%. With `COc1ccc([C@H]2[C@H](C)C(=O)N2c2cc(OC)c(OC)c(OC)c2)cc1O`, the inhibition entry in data set [1] and in data set [11] was “Active” in each case. Also, the Activity in [2] was 23.4%; in data set [5] it was 5.3%; in [6] it was “Dose-dependent effect”; in data set [7], “Dose-dependent effect”; in data set [8], “Non-Toxic”; in [9] it was 37.5%. In addition, in data set [10], the Activity result is “Dose-dependent effect”. Further, in data set [3], the 50% lethal dose (LD50) at 336 h was 136 mg/kg. The survival at 14 day in [4] stood at 90%.
